Starred links: 1 amine or outer side, 2 acyl side, 3 side chain; linkers in the order of their positions; H or OH if unused. Positions of bridges follow the written chain, without caps; N, C: chain ends. Non-standard residues stand in square brackets, D forms with d. Residues, ends and D or L forms follow the SMILES beside them. *: point of attachment. hPhe(3,5-F2-4-CF3) = N[C@@H](CCc1cc(F)c(C(F)(F)F)c(F)c1)C(=O)O; hPhe(3-Cl-4-CF3) = N[C@@H](CCc1ccc(C(F)(F)F)c(Cl)c1)C(=O)O; NMeAbu(4,4,4-F3) = CN[C@@H](CC(F)(F)F)C(=O)O; NMePhe(4-Me) = CN[C@@H](Cc1ccc(C)cc1)C(=O)O; hPhe(4-Cl) = N[C@@H](CCc1ccc(Cl)cc1)C(=O)O; NMePhe(2-Me) = CN[C@@H](Cc1ccccc1C)C(=O)O; NMedβ3hAla = C[C@H](CC(=O)[*:2])N(C)[*:1]; NMeAla(cPent) = CN[C@@H](CC1CCCC1)C(=O)O; NMeCha = CN[C@@H](CC1CCCCC1)C(=O)O; NMeChg = CN[C@H](C(=O)O)C1CCCCC1; NMeD = CN[C@@H](CC(=O)O)C(=O)O; NMeL = CN[C@@H](CC(C)C)C(=O)O; NMeNva = CCC[C@H](NC)C(=O)O; NMeV = CN[C@H](C(=O)O)C(C)C; dIva = CC[C@@](C)(N)C(=O)O; NMeS = CN[C@@H](CO)C(=O)O; Morpholide = C1CN(*)CCO1; NMeA = CN[C@@H](C)C(=O)O; Piperidide = C1CCN(*)CC1; Pyrrolidide = C1CCN(*)C1; Ac5c = NC1(C(=O)O)CCCC1; Aze = O=C(O)[C@@H]1CCN1; Cyclopropyl = C1CC1*; Sar = CNCC(=O)O
What was measured:
[1] = target: T1, Kras and SOS1 (biotin-tagged human Kras loaded with GDP, His-tagged human SOS1) (Homo sapiens, UniProt P01116, G12D); test: Protein-protein interaction inhibition between Kras and SOS1 (KrasGl2D-SOS PPI) using AlphaScreen; format: binding; details: AlphaScreen; biotin-tagged human Kras loaded with GDP, His-tagged human SOS1; read-out: KRAS G12D-SOS PPI IC50
T1 construct: made in house; host or cells: E. coli (stated for Kras only)
Procedure, shortened: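 AlphaScreen format: Ni donor beads capture His-SOS1, streptavidin acceptor beads capture biotinylated Kras (E. coli-expressed, GDP-loaded post-purification). Excite 680 nm, read 520-620 nm.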

[2] = test system: Human pancreatic cancer cell line AsPC-1; test: Measurement of AsPC-1 cell growth inhibition (AsPC-1 CGI); format: cell-based; details: 96 h
Procedure, shortened: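 AsPC-1 cells in 15% FBS RPMI-1640 were exposed to test compound for 96 hours at 37° C, with CellTiter-Glo as endpoint.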

T1 sequence (P01116 1-188 isoform P01116-2 G12D): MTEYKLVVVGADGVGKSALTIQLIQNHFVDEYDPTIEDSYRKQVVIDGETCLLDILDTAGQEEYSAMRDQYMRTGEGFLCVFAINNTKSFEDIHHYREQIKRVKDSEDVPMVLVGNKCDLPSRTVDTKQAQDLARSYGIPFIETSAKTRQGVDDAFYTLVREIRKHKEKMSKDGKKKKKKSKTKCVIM

Structure (SMILES) | IC50 [1] | IC50 [2]
CC[C@H](C)[C@@H]1NC(=O)[C@H](CC(C)C)N(C)C(=O)C[C@@H](C(=O)N2CCCCC2)N(C)C(=O)[C@H](C(C)C)N(C)C(=O)C2(CCCC2)NC(=O)[C@@H]2CCCN2C(=O)[C@H](CCc2ccc(C(F)(F)F)c(Cl)c2)NC(=O)CN(C)C(=O)[C@H](Cc2ccccc2C)N(C)C(=O)CN(C)C(=O)CN(C)C1=O [Compound 1584] ([NMeL]I[Sar][Sar][NMePhe(2-Me)][Sar][hPhe(3-Cl-4-CF3)]P[Ac5c][NMeV][NMeD]-Piperidide; lactam N-11) | 9.5 nM | 100 to 500 nM
CC[C@H](C)[C@@H]1NC(=O)[C@H](CC(C)C)N(C)C(=O)C[C@@H](C(=O)N2CCCCC2)N(C)C(=O)[C@H](C2CCCCC2)N(C)C(=O)C2(CCCC2)NC(=O)[C@@H]2CCCN2C(=O)[C@H](CCc2ccc(C(F)(F)F)c(Cl)c2)NC(=O)CN(C)C(=O)[C@H](COC2CC2)N(C)C(=O)CN(C)C(=O)CN(C)C1=O [Compound 1731] ([NMeL]I[Sar][Sar][NMeS](Cyclopropyl)[Sar][hPhe(3-Cl-4-CF3)]P[Ac5c][NMeChg][NMeD]-Piperidide; lactam N-11) | 1.9 nM | 100 to 500 nM
CC[C@H](C)[C@@H]1NC(=O)[C@H](CC(F)(F)F)N(C)C(=O)C[C@@H](C(=O)N2CCOCC2)N(C)C(=O)[C@H](C2CCCCC2)N(C)C(=O)C2(CCCC2)NC(=O)[C@@H]2CCCN2C(=O)[C@H](CCc2ccc(C(F)(F)F)c(Cl)c2)NC(=O)CN(C)C(=O)[C@H](CC2CCCC2)N(C)C(=O)CN(C)C(=O)CN(C)C1=O [Compound 367] ([NMeAbu(4,4,4-F3)]I[Sar][Sar][NMeAla(cPent)][Sar][hPhe(3-Cl-4-CF3)]P[Ac5c][NMeChg][NMeD]-Morpholide; lactam N-11) | 0.6 nM | 100 to 500 nM
CCC[C@H]1C(=O)N[C@@H]([C@@H](C)CC)C(=O)N(C)CC(=O)N(C)CC(=O)N(C)[C@@H](Cc2ccc(C)cc2)C(=O)N(C)CC(=O)N[C@@H](CCc2cc(F)c(C(F)(F)F)c(F)c2)C(=O)N2CCC[C@H]2C(=O)NC2(CCCC2)C(=O)N(C)[C@@H](C2CCCCC2)C(=O)N(C)[C@H](C(=O)N2CCCC2)CC(=O)N1C [Compound 1197] ([NMeNva]I[Sar][Sar][NMePhe(4-Me)][Sar][hPhe(3,5-F2-4-CF3)]P[Ac5c][NMeChg][NMeD]-Pyrrolidide; lactam N-11) | 0.6 nM | 20 to 50 nM
CC[C@H](C)[C@@H]1NC(=O)[C@H](CC(C)C)N(C)C(=O)C[C@@H](C)N(C)C(=O)[C@H](C2CCCCC2)N(C)C(=O)C2(CCCC2)NC(=O)[C@@H]2CCCN2C(=O)[C@H](CCc2ccc(C(F)(F)F)c(Cl)c2)NC(=O)CN(C)C(=O)[C@H](CC2CCCCC2)N(C)C(=O)CN(C)C(=O)CN(C)C1=O [Compound 629] (cyclo([Ac5c][NMeChg][NMedβ3hAla][NMeL]I[Sar][Sar][NMeCha][Sar][hPhe(3-Cl-4-CF3)]P)) | 10 nM | 100 to 500 nM
CC[C@H](C)[C@@H]1NC(=O)[C@H](CC(C)C)N(C)C(=O)C[C@@H](C(=O)N2CCCCC2)N(C)C(=O)[C@H](C(C)C)N(C)C(=O)C2(CCCC2)NC(=O)[C@@H]2CCCN2C(=O)[C@H](CCc2ccc(C(F)(F)F)c(Cl)c2)NC(=O)CN(C)C(=O)[C@H](C2CCCCC2)N(C)C(=O)[C@@H]2CCN2C(=O)[C@H](C)N(C)C1=O [Compound 526] ([NMeL]I[NMeA][Aze][NMeChg][Sar][hPhe(3-Cl-4-CF3)]P[Ac5c][NMeV][NMeD]-Piperidide; lactam N-11) | 6.6 nM | 100 to 500 nM
CC[C@H](C)[C@@H]1NC(=O)[C@H](CC(C)C)N(C)C(=O)C[C@@H](C(=O)N2CCCCC2)N(C)C(=O)[C@H](C(C)C)N(C)C(=O)[C@@](C)(CC)NC(=O)[C@@H]2CCCN2C(=O)[C@H](CCc2ccc(C(F)(F)F)c(Cl)c2)NC(=O)CN(C)C(=O)[C@H](CC2CCCCC2)N(C)C(=O)CN(C)C(=O)CN(C)C1=O [Compound 1130] ([NMeL]I[Sar][Sar][NMeCha][Sar][hPhe(3-Cl-4-CF3)]P[dIva][NMeV][NMeD]-Piperidide; lactam N-11) | 4.4 nM | 100 to 500 nM
CC[C@H](C)[C@@H]1NC(=O)[C@H](C)N(C)C(=O)C[C@@H](C(=O)N2CCCCC2)N(C)C(=O)[C@H](C2CCCCC2)N(C)C(=O)C2(CCCC2)NC(=O)[C@@H]2CCCN2C(=O)[C@H](CCc2ccc(Cl)cc2)NC(=O)CN(C)C(=O)[C@H](CC2CCCCC2)N(C)C(=O)CN(C)C(=O)CN(C)C1=O [Compound 292] ([NMeA]I[Sar][Sar][NMeCha][Sar][hPhe(4-Cl)]P[Ac5c][NMeChg][NMeD]-Piperidide; lactam N-11) | 0.45 nM | 50 to 100 nM
CC[C@H](C)[C@@H]1NC(=O)[C@H](CC(C)C)N(C)C(=O)C[C@@H](C(=O)N2CCCCC2)N(C)C(=O)[C@H](C2CCCCC2)N(C)C(=O)C2(CCCC2)NC(=O)[C@@H]2CCCN2C(=O)[C@H](CCc2ccc(C(F)(F)F)c(Cl)c2)NC(=O)CN(C)C(=O)[C@H](Cc2ccc(C)cc2)N(C)C(=O)CN(C)C(=O)CN(C)C1=O [Compound 1804] ([NMeL]I[Sar][Sar][NMePhe(4-Me)][Sar][hPhe(3-Cl-4-CF3)]P[Ac5c][NMeChg][NMeD]-Piperidide; lactam N-11) | 0.51 nM | 50 to 100 nM

From patent US12371454B2, “Cyclic peptide compound having Kras inhibitory action” (priority 2019, dated 2025)
